Experimental findings from patent publication US9000012B2 (priority 2009, dated 2015) are described below.

The structures appear in SMILES notation. Where two headings read alike, the source gives them in different places.

Data set [1] is described as follows: logP of the compounds of table 1. It is filed as physicochemical.
The next data set concerns Phytophthora infestans. Format: in vivo, Phytophthora infestans on tomato. The following applies: preventive spray on young tomato plants, 500 ppm of active ingredient, inoculated one day after treatment, evaluated 7 days after inoculation; 0% = untreated control, 100% = no disease.
Data set [2] in a line: logP of the compounds of table 1. Format: physicochemical. The source holds these as a separate data set.

What is called logP is a log measure of how a compound divides between an organic and an aqueous phase. Read a high logP as higher lipophilicity. Molecule `CNC(=O)C(=NOCc1cccc(NC(=O)C2COc3ccccc3O2)n1)c1ccccc1` (centres unmarked) [Example 75] had a logP in data set [1] of 3.06. The Efficacy in the data set on Phytophthora infestans was determined as 85%.
On the same counts, the results for `CN(C)C(=O)C(=NOCc1cccc(NC(=O)OC(C)(C)C)n1)c1ccccc1` [Example 98] are 3.37 and 85%.
On the same counts, the results for `CCCCCOC(=O)Nc1cccc(CON=C(C(=O)N(C)C)c2ccccc2)n1` [Example 99] are 3.96 and 95%.
On the same counts, the results for `C#CCCOC(=O)Nc1cccc(CON=C(C(=O)N(C)C)c2ccccc2)n1` [Example 100] are 1.83 and 70%.
In data set [1], `C#CCC(C)OC(=O)Nc1cccc(CON=C(C(=O)N(C)C)c2ccccc2)n1` (centres unmarked) [Example 101] returned a logP of 3.07. Besides, the Efficacy in the data set with Phytophthora infestans is 95%.
Molecule `C#CCC(C)OC(=O)Nc1nc(CON=C(C(=O)N(C)CC)c2ccccc2)cs1` (centres unmarked) [compound 145] had a logP in data set [1] of 3.09.
Same read-out and setting: then `CCN(C)C(=O)C(=NOCc1csc(NC(=O)C(C)Oc2ccccc2)n1)c1ccccc1` (centres unmarked) [compound 146], with 3.48; and `CCN(C)C(=O)C(=NOCc1csc(NC(=O)Cc2ccc(OC)cc2)n1)c1ccccc1` [compound 147], with 3.09.
Still for that read-out and setting: the value for `C#CCCCCOC(=O)Nc1nc(CON=C(C(=O)N(C)CC)c2ccccc2)cs1` [compound 148] was 3.29; that for `CCN(C)C(=O)C(=NOCc1csc(NC(=O)C2COc3ccccc3O2)n1)c1ccccc1` (centres unmarked) [compound 149] was 3.39.
`CCN(C)C(=O)C(=NOCc1csc(NC(=O)c2ccc(Cl)cc2)n1)c1ccccc1` [compound 150] displayed a logP in data set [1] of 3.69.
Still for that read-out and setting: then `CCN(C)C(=O)C(=NOCc1csc(NC(=O)OCCOc2ccccc2)n1)c1ccccc1` [compound 151], with 3.48; and `C#CCCOC(=O)Nc1nc(CON=C(C(=O)N(C)CC)c2ccccc2)cs1` [compound 152], with 2.80.
On to `CCON(C)C(=O)C(=NOCc1cccc(NC(=O)OC(C)(C)C)n1)c1ccccc1` [compound 201], for which the logP in data set [2] amounted to 2.38.
Same read-out and setting: the value for `C#CCCCCOC(=O)Nc1cccc(CON=C(C(=O)N(C)OCC)c2ccccc2)n1` [compound 202] was 3.71; that for `CCON(C)C(=O)C(=NOCc1cccc(NC(=O)C2COc3ccccc3O2)n1)c1ccccc1` (centres unmarked) [compound 203] was 3.83.
Molecule `CCON(C)C(=O)C(=NOCc1cccc(NC(=O)c2ccc(Cl)cc2)n1)c1ccccc1` [compound 204] returned a logP in data set [2] of 4.01.
On the same count and under the same terms, the value for `CCON(C)C(=O)C(=NOCc1cccc(NC(=O)C(C)Oc2ccccc2)n1)c1ccccc1` (centres unmarked) [compound 205] was 3.94.
Same read-out and setting: then `CCON(C)C(=O)C(=NOCc1cccc(NC(=O)Cc2ccc(OC)cc2)n1)c1ccccc1` [compound 206], with 3.37.
Still for that read-out and setting: then `CCON(C)C(=O)C(=NOCc1cccc(NC(=O)OCCOc2ccccc2)n1)c1ccccc1` [compound 207], with 3.89; and `CCON(C)C(=O)C(=NOCc1csc(N)n1)c1ccccc1` [compound 208], with 1.35; and `CCON(C)C(=O)C(=NOCc1csc(NC(=O)OCCOc2ccccc2)n1)c1ccccc1` [compound 209], with 3.62.
`CCON(C)C(=O)C(=NOCc1csc(NC(=O)Cc2ccc(OC)cc2)n1)c1ccccc1` [compound 210] yielded a log partition coefficient (logP) in data set [2] of 3.23.
Regarding `C#CCCCCOC(=O)Nc1nc(CON=C(C(=O)N(C)OCC)c2ccccc2)cs1` [compound 211], the logP in data set [2] was found to be 3.44.
As to `C#CCCOC(=O)Nc1cccc(CON=C(C(=N)N(C)N)c2ccccc2)n1` [compound 308], the logP in data set [2] was found to be 1.77.
As for `C#CCCOC(=O)Nc1cccc(CON=C(C(=N)SC)c2ccccc2)n1` [compound 309], in data set [2], the logP is given as 3.02.
Turning to `C#CCCOC(=O)Nc1cccc(CON=C(C(N)=S)c2ccccc2)n1` [compound 310], in data set [2], the logP is 2.75.
